# Experimental data from ChEMBL document CHEMBL2417420, “Autotaxin inhibition: development and application of computational tools to identify site-selective lead compounds” (Bioorg Med Chem, 2013).
# Peptide text beside a SMILES is read from it. * marks the point of attachment. Cbz = O=C(OCc1ccccc1)*
# Molecular target: Autotaxin (Homo sapiens, UniProt Q13822)
# Experiment: Inhibition of C-terminal FLAG-tagged human recombinant autotaxin using synthetic substrate FS-3 at 10 uM measured every 2 mins by FRET assay relative to control
row,inhibition,SMILES
1,0%,Cc1cc(C)cc(CC(=O)N2CCN(c3ncccc3C(=O)NC(C(N)=O)C(C)O)CC2)c1 (configuration not stated)
2,20%,COc1ccccc1/C=C1\SC(=O)N(CCC(=O)N2c3ccccc3Sc3ccccc32)C1=O
3,30%,COc1cc(C2C(C#N)=C(SCC(=O)Nc3cccc4ccccc34)NC3=C2C(=O)CCC3)ccc1O (configuration not stated)
4,10%,COc1ccc(/C=N/NC(=O)c2cc(O)c(O)c(O)c2)cc1Cn1nc(C)c(Br)c1C
5,10%,O=C(NCC(O)CO)c1ccc2c(c1)nc(CN1CCC(CCO)CC1)n2CCc1ccccc1 (configuration not stated)
6,10%,O=C1/C(=C\c2ccc(OCc3cccc4ccccc34)cc2)SC(=S)N1c1cccc(F)c1
7,10%,COc1ccc(CNC(=O)N2CC(O)C(N3CCN(c4ccccc4F)CC3)C2)cc1 (configuration not stated)
8,10%,COc1cccc(CNS(=O)(=O)c2ccc3c(c2)NC(=O)C(C)N3C(=O)CN2CCN(c3ccccn3)CC2)c1OC (configuration not stated)
9,10%,CC(O)C(NC(=O)c1cccnc1N1CCN(C(=O)CCC(=O)c2ccccc2)CC1)C(N)=O (configuration not stated)
10,10%,CCC(COc1ccc2oc3ccccc3c2c1)NCCC(=O)N(CC(N)=O)Cc1ccc(C)cc1 (configuration not stated)
11,10%,COc1cc(/C=N/NC(=O)c2ccc(CN3C(=O)c4cccc5cccc3c45)cc2)cc(Br)c1O
12,20%,O=C1/C(=C/c2cccc(Oc3ccccc3)c2)SC(=S)N1Cc1ccccc1
13,0%,O=C(Cc1ccccc1OC(=O)Cn1c(=O)sc2ccccc21)Cn1c(=O)sc2ccccc21
14,0%,CCCCCCOC(=O)Oc1ccc(/C=N/c2ccc(OCC)cc2)cc1
15,30%,O=C(NCC(O)CO)c1ccc2c(c1)nc(CN1CCC(N3CCCC3)CC1)n2CCc1ccccc1 (configuration not stated)
16,10%,Cc1ccc(C)c(N2CCN(C3CN(C(=O)NCCc4ccccc4)CC3O)CC2)c1 (configuration not stated)
17,20%,CCN(C(=O)c1ccc(/C=C2\S/C(=N\c3ccccc3)N([C@H](C)C(=O)O)C2=O)cc1)c1ccccc1
18,0%,CCCCCCOc1ccc(/C=N/c2ccc(/N=C/c3ccc(OCCCCCC)cc3)c(Cl)c2)cc1
19,30%,COc1ccc(CCNC(=O)c2ccc3c(c2)nc(-c2cc(OC)c(OC)c(OC)c2)n3CCc2ccc(OC)c(OC)c2)cc1OC
20,20%,COc1ccc(CCn2c(-c3cc(OC)c(OC)c(OC)c3)nc3cc(C(=O)NCCOCCO)ccc32)cc1OC
21,0%,CCC(C)C(NC(=O)OCc1ccccc1)C(=O)NC(Cc1ccc(O)cc1)C(N)=O (stereo not drawn) (Cbz-Ile-Tyr-NH2; configuration not given here)
22,20%,COc1ccc(CNC(=O)c2cc(-c3ccc(OC)c(OC)c3)nc3ccc(CNC(=O)c4cccc(Cl)c4)cc23)c(OC)c1

row,inhibition,SMILES
1,10%,O=C1Nc2ccc([N+](=O)[O-])cc2/C1=N/NC(=O)c1ccc(C(=O)N/N=C2\C(=O)Nc3ccc([N+](=O)[O-])cc32)cc1
2,0%,Cc1cc2cc(C#N)c(SCC(=O)Nc3ccc(N(C)C)cc3)nc2cc1C
3,30%,COc1cc(C2CC(=O)NC(SCC(=O)Nc3ccccc3C)=C2C#N)cc(Br)c1O (configuration not stated)
4,20%,COc1cccc(CC(=O)NCCNc2nc3cc4c(cc3cc2C#N)OCO4)c1
5,20%,COc1ccc(C2CC(=O)NC(SCC(=O)Nc3ccc(I)cc3)=C2C#N)cc1OC (configuration not stated)
6,10%,COc1ccc(-c2nc3cc(C(=O)NCCOCCO)ccc3n2CCc2ccc(OC)c(OC)c2)c(OC)c1
7,30%,N#CC1=C(SCC(=O)Nc2ccc(Br)cc2)NC(=O)CC1c1cccc(O)c1 (configuration not stated)
8,20%,O=C(O)c1cc(-c2ccc(/C=C3/S/C(=N\Cc4ccccc4)N(Cc4ccccc4)C3=O)o2)ccc1Cl
9,10%,CC1CN(c2ccc(C(=O)NC(Cc3ccc(O)cc3)C(N)=O)cn2)CCN1C(=O)C(N)Cc1ccccc1 (configuration not stated)
10,30%,COc1cc(CCNC(=O)c2ccc3c(c2)nc(-c2cc(OC)c(OC)c(OC)c2)n3CCc2ccc(OC)c(OC)c2)cc(OC)c1
11,20%,COc1cc(/C=c2/sc3n(c2=O)NC2(c4ccccc4)N(C)C(=O)N(C)C2(c2ccccc2)N=3)ccc1O (configuration not stated)
12,0%,CCn1c2ccccc2c2cc(/C=C3\SC(=S)N([C@H](Cc4ccc(O)cc4)C(=O)O)C3=O)ccc21
13,10%,COc1cc(/C=N/NC(=O)c2cc(-c3ccc4ccccc4c3)n[nH]2)ccc1O
14,10%,COc1cccc(Cc2nc3cc(C(=O)NCC(O)CO)ccc3n2CCc2ccccc2F)c1 (configuration not stated)
15,30%,COc1cc(C2OCC3(CCCC4(COC(c5ccc(O)c(OC)c5)OC4)C3=O)CO2)ccc1O (configuration not stated)
16,10%,Cc1ccc2[nH]c3nc(SCC(=O)NCc4ccc5c(c4)OCO5)nnc3c2c1
17,10%,O=C1c2ccccc2-c2ccc(S(=O)(=O)Nc3ccc(S(=O)(=O)Nc4nccs4)cc3)cc21
18,79.1%,CCCCCCOc1ccc(/C=N/c2ccc(-c3ccc(/N=C/c4ccc(OCCCCCC)c(OC)c4)cc3)cc2)cc1CC
19,30%,CC(C)Cc1ccc(C(C)C(=O)N2CCN(c3ncccc3C(=O)NC(C(N)=O)C(C)O)CC2C)cc1 (configuration not stated)
20,0%,Cc1ccc(C(=O)Nc2ccccc2C(=O)O)cc1S(=O)(=O)Nc1ccc(Br)cc1
21,20%,COC(=O)c1ccc(/C=C2/Sc3ccccc3N(Cc3ccccc3F)C2=O)cc1
22,0%,O=[N+]([O-])c1cc(/C=N/c2ccc3nc(SCc4ccc(Br)cc4)sc3c2)ccc1O

row,inhibition,SMILES
1,20%,COc1ccc(-c2cc(C(=O)NCCC(=O)NCc3ccccc3OC)c3ccccc3n2)cc1
2,0%,CCc1nc2ccc(C(=O)NCCc3c[nH]c4ccccc34)cn2c1N(C)C(=O)C1CCCCC1
3,0%,CC(=O)N1CCN(C(=O)c2ccc3nc(C)c(N(C)C(=O)CCc4ccccc4)n3c2)CC1
4,10%,O=C(COc1cc(Cl)c(Cl)cc1Cl)Nc1ccc(CNC(=O)c2cnc3cc(C(F)(F)F)ccc3c2O)cc1
5,10%,COc1ccc(-c2cc(C(=O)NCC(C)C(=O)NCCNc3ccccc3)c3ccccc3n2)cc1 (configuration not stated)
6,10%,COc1ccc(CNC(=O)C(C)(C)NC(=O)c2cc(-c3ccoc3)nc3ccccc23)c(OC)c1
7,10%,COc1cc(/C=N/NC(=O)c2ccc(NC(=O)c3ccc(F)cc3)cc2)cc(Cl)c1O
8,20%,COCCNS(=O)(=O)c1ccc2c(c1)NC(=O)C(CO)N2C(=O)CN1CCC(N2CCCCC2)CC1 (configuration not stated)
9,10%,CC(CNC(=O)c1cc(-c2ccoc2)nc2ccccc12)C(=O)NCCNc1ccccc1 (configuration not stated)
10,10%,O=C1/C(=C\c2cccc(OCc3ccccc3F)c2)SC(=S)N1Cc1ccccc1
11,10%,N#CC1=C(SCC(=O)N(c2ccccc2)c2ccccc2)NC(=O)CC1c1cc(Br)c(O)c(Br)c1 (configuration not stated)
12,10%,COc1cc(C(=O)NCCNc2nc3cc4c(cc3cc2C#N)OCO4)cc(OC)c1OC
13,30%,COCCNS(=O)(=O)c1ccc2c(c1)NC(=O)C(Cc1ccccc1)N2C(=O)CNCc1ccc(OC)cc1 (configuration not stated)
14,30%,CC(C)C(=O)NC(Cc1ccc(OCc2ccccc2)cc1)C(=O)NCCCN(C)c1ccccc1 (configuration not stated)
15,10%,COc1ccc(CCn2c(COc3ccccc3)nc3cc(C(=O)NCC(O)CO)ccc32)cc1OC (configuration not stated)
16,20%,CC(O)C(NC(=O)c1ccc(N2CCCN(C(=O)CCC(=O)c3ccccc3)CC2)nc1)C(N)=O (configuration not stated)
17,10%,COc1ccc(CCn2c(CCc3ccccc3)nc3cc(C(=O)NCCOCCO)ccc32)cc1OC
18,10%,COc1ccc(-c2cc(C(=O)N/N=C/c3cc(OC)c(O)c(OC)c3)[nH]n2)cc1OC
19,10%,CC(CNC(=O)CCCn1ncn2c(cc3occc32)c1=O)c1ccccc1 (configuration not stated)
20,0%,O=C(Cn1c(=O)sc2ccccc21)OCc1cccc(Oc2ccccc2)c1
21,10%,CCc1ccc2c(c1)c1nnc(SCC(=O)NCc3ccc4c(c3)OCO4)nc1n2C
22,10%,O=C(NC(S)Nc1ccc2oc(-c3ccc(-c4ccccc4)cc3)nc2c1)c1ccc([N+](=O)[O-])cc1 (configuration not stated)

row,inhibition,SMILES
1,20%,COc1cccc(-c2ccc(C(=O)N(CCN)Cc3ccc(NC(C)=O)cc3)cn2)c1
2,30%,CC(=O)C1=C(C)NC(SCC(=O)Nc2ccc(Br)cc2)=C(C#N)C1c1ccc(O)cc1 (configuration not stated)
3,0%,COc1cccc(/C=C2/S/C(=N/c3ccccc3)N(Cc3ccccc3)C2=O)c1O
4,0%,COc1cc(C2CC(=O)NC(SCC(N)=O)=C2C#N)ccc1O (configuration not stated)
5,30%,C=CCOC(=O)C1=C(C)NC(SCC(=O)Nc2cccc(Cl)c2)=C(C#N)C1c1ccc(O)c(OC)c1 (configuration not stated)
6,10%,CCOc1cc(/C=C2/S/C(=N/c3ccccc3)N(c3ccccc3)C2=O)ccc1OCc1ccccc1
7,30%,COc1ccc(C2=NN(C(=O)CSc3nnc(CNC(=O)c4ccco4)n3-c3cc(C)ccc3C)C(c3ccc(OC)cc3)C2)cc1 (configuration not stated)
8,30%,COc1cccc(/C=C2/NC(=O)N(c3cccc(Cl)c3)C2=O)c1OCc1cccc(C(=O)O)c1
9,20%,Cc1cc(C)cc(CC(=O)N2CCN(c3ccc(C(=O)NC(C(N)=O)C(C)O)cn3)CC2)c1 (configuration not stated)
10,30%,CCCCOc1ccc(-c2nc3cc(C(=O)NCc4cc(F)ccc4F)ccc3n2CCc2ccc(OC)c(OC)c2)cc1
11,0%,COc1cc(/C=C2/SC(=S)N(C3CCCCC3)C2=O)ccc1OCc1ccccc1Cl
12,20%,COc1cc(CCNC(=O)c2ccc3c(c2)nc(-c2ccccc2)n3CCc2ccc(OC)c(OC)c2)cc(OC)c1
13,30%,COc1cc(CCNC(=O)c2ccc3c(c2)nc(-c2cc(OC)cc(OC)c2)n3CCc2ccc(OC)c(OC)c2)cc(OC)c1
14,10%,CC(=O)CCC(=O)N1CCN(c2ccc(C(=O)NC(C(N)=O)C(C)O)cn2)CC1C (configuration not stated)
15,20%,COc1ccc(-c2cc(C(=O)NC(C)(C)C(=O)NCCCOC(C)C)c3ccccc3n2)cc1C
16,10%,Cc1cc(C)cc(CC(=O)N2CCCN(c3ccc(C(=O)NC(C(N)=O)C(C)O)cn3)CC2)c1 (configuration not stated)
17,30%,CCCCS(=O)(=O)N1CCn2nc(C3CCC(CNS(=O)(=O)c4ccccc4C)CC3)cc21 (configuration not stated)
18,10%,Cc1[nH]n(-c2cc(Cl)c(S(=O)(=O)O)cc2Cl)c(=O)c1/N=N/c1cc(Nc2nc(Cl)nc(Nc3cccc(S(=O)(=O)O)c3)n2)ccc1S(=O)(=O)O
19,20%,CC(O)C(NC(=O)c1cccnc1N1CCN(C(=O)Cc2ccc(-c3ccccc3)cc2)CC1)C(N)=O (configuration not stated)
20,20%,COc1ccccc1C(COc1ccccc1C)NCCC(=O)N(CC(N)=O)Cc1ccc(C)cc1 (configuration not stated)

row,SMILES,inhibition
1,O=C(NCc1ccc(NC(=O)c2cn(Cc3ccccc3)c3ccccc23)cc1)c1cnc2cc(C(F)(F)F)ccc2c1O,0%
